Experimental data published in patent US11707474B2, “Methods for treating acute myeloid leukemia and related conditions” (GlycoMimetics, Inc., priority 2018, dated 2023).
Several values for one entry are separate records, joined by “and”; a condition that tells them apart may be missing. Equal values may be shown once.

Tests used:
KG1 cells = experiment: Systemic KG1 AML model survival; format: in vivo, NSG female mice
Procedure: The potential relevance of these in vitro observations was assessed in NSG female mice with pre-existing disseminated KG1 cells and treated with a compound of Formula (I) (40 mg/kg, IP, QD for 14 days), 5-azacytidine (5 mg/kg, IP, administered on days 7, 10, 13, 16, and 19 (5 doses total)), or the combination of both compounds. Under the conditions of the assay, the median survival time of mice treated with saline alone or a compound of Formula (I) was 69.5 and 69 days, respectively (FIG. 9). Administration of a compound of Formula (I) with 5-azacytidine increased median survival time beyond that obtained with 5-azacytidine treatment alone (>104 days versus 88 days; P=0.014, FIG. 9).

[1] = Radiation induced mucositis assay; format: in vivo, Mice (C57bl/6); details: 8.0 Gy whole body irradiation; 20 mg/kg IP BID 6 days
Procedure: Mice (C57bl/6) were subjected to whole body irradiation (8.0 Gy) and immediately afterwards treated with a compound of Formula (I) (20 mg/kg in saline, IP, BID (i.e. 40 mg/kg per day)) or saline alone (0.15 M NaCl) for 6 days. The small intestine was removed at day 6 and digested to release cells. The number of CD11b^+F4/80^+ macrophages from the small intestine was determined by flow cytometry (FIG. 2).

sE-selectin = experiment: Plasma soluble E-selectin ELISA during treatment; format: in vivo, human; details: individual subjects; for sE-selectin AUEC Day 3 / sE-selectin AUEC Day 8 / sE-selectin AUEC Percent Change from Day 1, Day 3 / sE-selectin AUEC Percent Change from Day 1, Day 8: with MEC
Procedure: Plasma sE-selectin was quantified using a commercially available sandwich format ELISA assay, in which a monoclonal antibody specific for sE-selectin has been pre-coated onto a microplate (Human sE-Selectin Platinum ELISA kit, eBioscience, cat. no. BMS205). Standards, samples and controls were pipetted into the wells of the microplate where they bind to the antibodies coated on the microplate. After a wash step, an HRP-conjugated anti-human sE-selectin antibody was added to the wells to bind the sE-selectin captured by the first antibody. After washing the plate wells to remove unbound HRP-conjugated anti-human sE-selectin antibody, a substrate solution reactive with HRP is added to the wells. Colored product formed in proportion to the amount of human sE-selectin present in the sample or standard. The color-producing reaction was stopped by addition of acid and absorbance of each well was measured at 450 nm. Six human serum samples from healthy donors served as the quality control samples. In addition, two control lyophilized plasma samples (high and low) included with the assay kit were also added to each run.
This response was seen both in mean levels and Area-Under-Effect-Curve (“AUEC”). Decrease from baseline to Day 8 (at the end of 6 days of treatment with a compound of Formula (I), given concurrently with MEC chemotherapy) was highly significant (P<0.0001) with no dose response. FIG. 11 illustrates decreasing mean levels of plasma soluble E-selectin over the treatment period in all dose groups, where doses were BID (i.e., the 5, 10, and 20 mg/kg “Per Dose” amounts of a compound of Formula (I) correspond to dosages of 10, 20, and 40 mg/kg per day, respectively).

[2] = tested on: acute myeloid leukemia (AML); experiment: Clinical outcomes, newly diagnosed older AML subjects, sodium salt infusion with 7+3; format: in vivo, human; details: newly diagnosed AML ≥60 y
Procedure: In this study, 25 human subjects who were newly diagnosed at age 60 or older with acute myeloid leukemia (AML) were selected for this study. Subjects were not disqualified for prior treatment or diagnosis for MDS or CMML.
Each subject received a total of 19 infusions of 10 mg/kg/dose of the compound of Formula (I), administered as the sodium salt, over 10 days with a nominal infusion duration of 20 minutes. The formulation for the infusion solution was as follows: […]
The first dose of a compound of Formula (I) was administered 24 hours±1 hour prior to the first dose of 7+3 (cytarabine and idarubicin) chemotherapy as a sentinel dose to evaluate the effect of the compound of Formula (I) alone (i.e., a single dose of 10 mg/kg the day before the first chemotherapy day). The compound of Formula (I) was then administered every 12 hours±1 hour on chemotherapy days (i.e., 20 mg/kg per day on chemotherapy days) and for two days following the last dose of chemotherapy. […] 7+3 (cytarabine and idarubicin) chemotherapy was administered on Days 2-8 comprising a continuous IV infusion of cytarabine 100 mg/m^2/d over seven days (168 hours, from days 2-8), and idarubicin 12 mg/m^2/d IV for the first three consecutive days ([…], from days 2-4).
The clinical outcome for each subject was assessed at the time of count recovery following completion of induction chemotherapy. Subjects were assigned to one of four response groups: complete remission (“CR”); complete remission with incomplete count recovery (“CRi”); morphologic leukemia-free state (“MLFS”); persistent disease (“PD”). Complete remission was defined as bone marrow blasts <5%; absence of circulating blasts and blasts with Auer rods; absence of extramedullary disease; ANC ≥1.0×10^9/L and platelets ≥100,000×10^9/L. Complete remission with incomplete recovery was defined as: all CR criteria except for residual neutropenia (<1.0×10^9/L) or thrombocytopenia (<100,000×10^9/L). Morphologic leukemia-free state was defined as: bone marrow blasts <5%; absence of blasts with Auer rods; absence of extramedullary disease; no hematologic recovery required. Persistent disease was defined as: bone marrow blasts >5%.

CC[C@@H]1CC(C(=O)NCCNC(=O)CCOCCOCCOCCOCCOCCOCCOCCOCCOCCOCCOCCOC)C[C@@H](O[C@@H]2O[C@@H](CO)[C@H](O)C(O[C@@H](CC3CCCCC3)C(=O)O)C2NC(C)=O)C1OC1O[C@@H](C)C(O)[C@H](O)[C@@H]1O (stereo partly drawn) [compound of Formula (I)]
median survival time (KG1 cells; 40 mg/kg IP QD 14 days alone): 69 days
median survival time (KG1 cells; 40 mg/kg IP QD 14 days with 5-azacytidine): > 104 days
CD11b+F4/80+ macrophages in small intestine [1]: decreased migration of inflammatory macrophages to the intestines
sE-selectin AUEC Day 1 (sE-selectin; 5 mg/kg per dose): 563.47 hrxng/mL and 1,605.18 hrxng/mL and 339.27 hrxng/mL and 328.40 hrxng/mL
sE-selectin AUEC Day 3 (sE-selectin; 5 mg/kg per dose): 494.30 hrxng/mL and 1,445.26 hrxng/mL and 275.71 hrxng/mL and 332.11 hrxng/mL
sE-selectin AUEC Day 8 (sE-selectin; 5 mg/kg per dose): 440.68 hrxng/mL and 728.47 hrxng/mL and 156.25 hrxng/mL and 161.11 hrxng/mL
sE-selectin AUEC Percent Change from Day 1, Day 3 (sE-selectin; 5 mg/kg per dose): −12.28% and −9.96% and −18.74% and 1.13%
sE-selectin AUEC Percent Change from Day 1, Day 8 (sE-selectin; 5 mg/kg per dose): −21.79% and −54.62% and −53.95% and −50.94%
sE-selectin AUEC Day 1 (sE-selectin; 10 mg/kg per dose): 338.36 hrxng/mL and 707.63 hrxng/mL and 325.19 hrxng/mL and 269.90 hrxng/mL and 230.35 hrxng/mL
sE-selectin AUEC Day 3 (sE-selectin; 10 mg/kg per dose): 313.04 hrxng/mL and 981.09 hrxng/mL and 298.31 hrxng/mL and 202.99 hrxng/mL and 185.98 hrxng/mL
sE-selectin AUEC Day 8 (sE-selectin; 10 mg/kg per dose): 168.71 hrxng/mL and 218.03 hrxng/mL and 25.51 hrxng/mL and 103.74 hrxng/mL and 158.91 hrxng/mL
sE-selectin AUEC Percent Change from Day 1, Day 3 (sE-selectin; 10 mg/kg per dose): −7.48% and 38.64% and −8.26% and −24.79% and −19.26%
sE-selectin AUEC Percent Change from Day 1, Day 8 (sE-selectin; 10 mg/kg per dose): −50.14% and −69.19% and −92.15% and −61.57% and −31.01%
sE-selectin AUEC Day 1 (sE-selectin; 20 mg/kg per dose): 2,206.19 hrxng/mL and 750.41 hrxng/mL and 202.19 hrxng/mL
sE-selectin AUEC Day 3 (sE-selectin; 20 mg/kg per dose): 1,743.61 hrxng/mL and 632.82 hrxng/mL and 163.18 hrxng/mL
sE-selectin AUEC Day 8 (sE-selectin; 20 mg/kg per dose): 956.57 hrxng/mL and 294.47 hrxng/mL and 31.49 hrxng/mL
sE-selectin AUEC Percent Change from Day 1, Day 3 (sE-selectin; 20 mg/kg per dose): −20.97% and −15.67% and −19.30%
sE-selectin AUEC Percent Change from Day 1, Day 8 (sE-selectin; 20 mg/kg per dose): −56.64% and −60.76% and −84.43%
one-year overall survival rate, all subjects [2]: 52%
one-year survival rate, MRD negative subjects [2]: 60%
severe oral mucositis rate [2]: 0%
median event-free survival ([2]; 95% CI 3-12.6): 9.2 months
median overall survival ([2]; 95% CI lower 9.9): 12.6 months
Oral Mucositis Events Grades 3/4 ([2]; N = 25): 0 n
